We go through 1 compound from patent US9492437B2, “Otamixaban for treatment of elderly and renal impaired non-ST elevation myocardial infarction patients” (SANOFI, priority 2009, dated 2016).

Where two headings read alike, the source gives them in different places.

A short description of series [1]: subgroup pharmacokinetic analysis (concentration of otamixaban). In kind it is in vivo, human. The conditions noted are these: dose 4 (0.140 mg/Kg/h).
Series [2] addresses free factor Xa (Homo sapiens, UniProt P00742). As to conditions: cited from earlier work.
The target of series [3] is factor Xa assembled in the prothrombinase complex (Factor Xa, Factor Va, calcium and phospholipid) (Homo sapiens, UniProt P00742). As to conditions: cited from earlier work.
Series [4] deals with thrombosis. The conditions noted are these: rodent; cited from earlier work.
Series [5] concerns thrombosis. The conditions noted are these: canine; cited from earlier work.

Sequence of factor Xa assembled in the prothrombinase complex (Factor Xa, Factor Va, calcium and phospholipid) (P00742 235-488 limits assumed): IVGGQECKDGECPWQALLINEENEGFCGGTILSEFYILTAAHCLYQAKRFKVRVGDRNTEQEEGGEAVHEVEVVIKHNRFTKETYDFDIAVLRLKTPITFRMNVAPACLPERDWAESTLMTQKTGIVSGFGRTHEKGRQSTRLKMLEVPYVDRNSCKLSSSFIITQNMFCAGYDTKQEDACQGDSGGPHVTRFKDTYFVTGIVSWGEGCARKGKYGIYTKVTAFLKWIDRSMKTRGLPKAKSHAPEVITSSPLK
Sequence of factor Xa assembled in the prothrombinase complex (Factor Xa, Factor Va, calcium and phospholipid) (P00742 41-179 limits assumed): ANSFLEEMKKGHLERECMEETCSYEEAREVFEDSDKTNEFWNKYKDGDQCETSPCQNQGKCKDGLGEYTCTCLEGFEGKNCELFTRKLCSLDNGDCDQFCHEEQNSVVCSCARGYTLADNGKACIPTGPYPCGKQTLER
Sequence of factor Xa assembled in the prothrombinase complex (Factor Xa, Factor Va, calcium and phospholipid) (P12259 29-737 partner limits assumed): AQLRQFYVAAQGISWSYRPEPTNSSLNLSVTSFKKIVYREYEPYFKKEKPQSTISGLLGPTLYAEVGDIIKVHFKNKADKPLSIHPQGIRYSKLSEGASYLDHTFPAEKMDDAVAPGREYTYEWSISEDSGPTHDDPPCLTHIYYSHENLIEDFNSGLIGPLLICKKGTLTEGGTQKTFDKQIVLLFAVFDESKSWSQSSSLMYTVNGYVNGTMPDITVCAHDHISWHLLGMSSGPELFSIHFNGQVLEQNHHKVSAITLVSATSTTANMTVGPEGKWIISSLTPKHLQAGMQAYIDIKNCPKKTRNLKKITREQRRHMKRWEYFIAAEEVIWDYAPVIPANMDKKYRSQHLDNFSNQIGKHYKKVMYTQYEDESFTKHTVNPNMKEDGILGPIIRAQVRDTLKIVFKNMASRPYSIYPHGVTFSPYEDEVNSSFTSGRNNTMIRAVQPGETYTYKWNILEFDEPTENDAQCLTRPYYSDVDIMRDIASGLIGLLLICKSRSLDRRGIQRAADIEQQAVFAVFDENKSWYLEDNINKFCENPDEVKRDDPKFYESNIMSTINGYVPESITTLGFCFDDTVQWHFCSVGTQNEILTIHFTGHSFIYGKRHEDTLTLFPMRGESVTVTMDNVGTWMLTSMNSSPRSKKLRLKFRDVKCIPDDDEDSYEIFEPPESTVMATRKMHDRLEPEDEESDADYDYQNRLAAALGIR
Sequence of factor Xa assembled in the prothrombinase complex (Factor Xa, Factor Va, calcium and phospholipid) (P12259 1574-2224 partner limits assumed): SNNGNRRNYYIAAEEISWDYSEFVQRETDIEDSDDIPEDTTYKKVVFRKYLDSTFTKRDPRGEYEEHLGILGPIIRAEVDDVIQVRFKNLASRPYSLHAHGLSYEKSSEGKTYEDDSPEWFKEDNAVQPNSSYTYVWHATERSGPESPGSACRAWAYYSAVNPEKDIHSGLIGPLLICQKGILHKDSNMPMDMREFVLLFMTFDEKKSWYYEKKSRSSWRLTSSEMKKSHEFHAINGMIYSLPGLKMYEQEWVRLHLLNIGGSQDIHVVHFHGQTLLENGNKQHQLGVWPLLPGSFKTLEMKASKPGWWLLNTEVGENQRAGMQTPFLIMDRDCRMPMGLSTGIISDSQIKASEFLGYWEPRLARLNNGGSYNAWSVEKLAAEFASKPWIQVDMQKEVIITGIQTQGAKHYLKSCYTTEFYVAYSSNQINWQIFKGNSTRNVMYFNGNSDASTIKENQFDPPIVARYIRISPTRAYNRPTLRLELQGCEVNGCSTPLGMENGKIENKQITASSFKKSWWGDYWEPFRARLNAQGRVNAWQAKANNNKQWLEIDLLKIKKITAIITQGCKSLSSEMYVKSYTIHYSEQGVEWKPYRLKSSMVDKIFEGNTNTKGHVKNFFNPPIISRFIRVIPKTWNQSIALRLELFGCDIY
Sequence of free factor Xa (P00742 235-488 limits assumed): as the sequence (P00742 235-488 limits assumed) above
Sequence of free factor Xa (P00742 41-179 limits assumed): as the sequence (P00742 41-179 limits assumed) above

For the compound `COC(=O)C(Cc1cccc(C(=N)N)c1)[C@@H](C)NC(=O)c1ccc(-c2cc[n+]([O-])cc2)cc1` (mixture of isomers) [Otamixaban, (2R,3R)-2-(3-Carbamimidoyl-benzyl)-3-[4-(1-oxy-pyridin-4-yl)benzoylamino]-butyric acid methyl ester], in series [1], the “concentration of otamixaban in patients with renal impairment and in elderly patients” value is given as “higher concentration”. For the same compound, the “inhibition of free factor Xa” value in series [2] is given as “inhibited”. Besides, the “inhibition of factor Xa assembled in the prothrombinase complex” value in series [3] is reported as “inhibited”. For the same compound, the “efficacy in models of thrombosis” value in series [4] and in series [5] was “highly efficacious” each time.
